Reference: patent US20230404969A1, “COMPOSITIONS AND METHOD FOR EFFECTIVE MANAGEMENT OF PERITONITIS” (priority 2022, published 2023)

Key:
IL-1β = experiment: Extracellular in vivo IL-1β estimation in serum from treated mice after LPS injection (ELISA); details: 1 mg/kg p.o for 6 days, serum 90 mins after LPS injection, ↑ upregulation
Description: BALM male mice aged 6-8 weeks were maintained at 22±2° C. under 12/12 h light dark cycle. Mice received oral treatment of test drugs at graded doses (w/v) for 6 days, followed by intravenous injection of 1 mg/kg (Brieva et al. Immunoferon, a glycoconjugate of natural origin, inhibits LPS-induced TNF-α production and inflammatory responses. International Immunopharmacology (2001) 1, 1979-1987). Six mice were employed in each group and experiments were performed in triplicates. Blood was collected from retro-orbital plexus of the experimental animals and serum was separated. TNF-α, IL-1β production was evaluated by a commercial ELISA kit in serum from treated mice, 90 mins after LPS injection.

TNF-α = experiment: Cytometric Bead Array of peritoneal fluid, chronic zymosan peritonitis: TNF-α; type: in vivo, mouse; details: 2 mg/kg, vs Zymosan control
Description: Peritoneal inflammation was induced by Zymosan A (Sigma Chemical) (Masashi et al. Zymosan, but Not Lipopolysaccharide, Triggers Severe and Progressive Peritoneal Injury Accompanied by complement Activation in a Rat Peritonitis Model) was prepared freshly in sterile, 0.9% w/v saline, and 0.5 ml was injected i.p. from day 0 to Day 5. The lymphocyte population in the peripheral blood was determined with a flow cytometer. Cells were phenotyped by flow cytometry with the following primary antibodies: CD4 (FITC) and CD8 (PE). Cells were gated broadly on all live lymphocyte cells, with only debris and multiple cell clusters being excluded. Analysis of mean fluorescence intensity was done and percentage cell population was evaluated. […]
The Cytometric Bead Array (Mouse Inflammation kit) was used to study cytokines in peritoneal fluid. […] Briefly, a mixture of 6 capture bead populations (50 μl) with distinct fluorescence intensities (detected in FL3) coated with antibodies specific for the above cytokines was mixed with each sample/standard (50 μl). […] Following acquisition of data by two colour cytometric analysis, the sample results were analysed using CBA software (BD Biosciences). […] Individual cytokine concentration ratios were indicated by their fluorescent intensities and was determined by interpolation from the corresponding standard curve.

[1] = system: Lactobacillus acidophilus (Gram positive); experiment: Bacterial translocation from the gut into organs: L. acidophilus; type: in vivo; details: Withanone 2 mg/kg; positive/6 mice
Description: (§1) Peritoneal inflammation was induced by Zymosan A (Sigma Chemical) (Masashi et al. Zymosan, but Not Lipopolysaccharide, Triggers Severe and Progressive Peritoneal Injury Accompanied by complement Activation in a Rat Peritonitis Model) was prepared freshly in sterile, 0.9% w/v saline, and 0.5 ml was injected i.p. from day 0 to Day 5. The lymphocyte population in the peripheral blood was determined with a flow cytometer. Cells were phenotyped by flow cytometry with the following primary antibodies: CD4 (FITC) and CD8 (PE). Cells were gated broadly on all live lymphocyte cells, with only debris and multiple cell clusters being excluded. Analysis of mean fluorescence intensity was done and percentage cell population was evaluated. The test drugs were administered for 30 days after the induction of peritonitis. On 36th day the peritoneal cavity was lavaged with 1.5 ml saline, and after a 30-s gentle manual massage, 0.5 ml exudate was retrieved, centrifuged at 3000 g for 3 min, and frozen at […] prior to cytokine and chemotactic-factor assessment.
(§2) Intestine serves as a barrier in preventing gut bacteria and/or endotoxin from spreading to organs and tissues. It is also known that bacterial translocation occurs in critically ill or immunocompromised patients, and the physical disruption of mucosal barrier in vivo rodent models seem to be a key factor Tor translocation (Deitch et al. Effect of hemorrhagic shock on bacterial translocation, intestinal morphology, and intestinal permeability in conventional and antibiotic-decontaminated rats; Critical Care Medicine; 1990 18(5)). Bacterial translocation from the gut into the peritoneal cavity and organs was analyzed. The mesenteric lymph nodes, liver, and spleen of mice, study group of 30, were removed using sterile instruments. The organs were then homogenized in 1 ml of sterile cooked meat broth and 50 μl of organ homogenate was spread on blood agar plates to detect aerobic bacteria and Eosin Methylene blue agar plates to detect specially for E. coli. These plates were then incubated at 37° C. for 2 days. […]

[2] = system: Enterococcus faecalis (Gram positive); experiment: Bacterial translocation from the gut into organs: E. faecalis; type: in vivo; details: Withanone 2 mg/kg; positive/6 mice
Description: as §1, §2

Myeloperoxidase (MPO) = experiment: Myeloperoxidase in peritoneal exudate (ELISA), chronic zymosan peritonitis; type: in vivo, mouse; details: 2 mg/kg, day 36
Description: as §1
Circulating toxins can activate neutrophils or stimulate monocytes to release mediators contributing to the development of endotoxic shock. […] The protein concentrations were carried out by means of colorimetric measurement at 450 nm on an ELISA plate reader by interpolation from a standard curve. […]

CC1=C(C)C(=O)O[C@@H]([C@@H](C)[C@@]2(O)CC[C@H]3[C@@H]4[C@@H]5O[C@@H]5[C@@]5(O)CC=CC(=O)[C@]5(C)[C@H]4CC[C@@]32C)C1 [Withanone]
Percentage IL-1β inhibition compared to LPS control (IL-1β): 24.5%
Inhibition of TNF-α (TNF-α): 58%
Bacterial translocation, Liver, L. acidophilus [1]: 1/6
Bacterial translocation, Mesenteric Lymph Nodes, L. acidophilus [1]: 1/6
Bacterial translocation, Spleen, L. acidophilus [1]: 1/6
Bacterial translocation, Liver, E. faecalis [2]: 1/6
Bacterial translocation, Mesenteric Lymph Nodes, E. faecalis [2]: 2/6
Bacterial translocation, Spleen, E. faecalis [2]: 0/6
Decrease of expression levels of MPO compared to the Zymosan control (Myeloperoxidase (MPO)): at least 50%
